In ChEMBL document CHEMBL1156023, “Grassystatins A-C from marine cyanobacteria, potent cathepsin E inhibitors that reduce antigen presentation” (J Med Chem, 2009):
Square brackets hold non-standard residues; d marks the D form. Peptide text beside a SMILES is read from it. Hmp(2R,3S) = CC[C@H](C)[C@@H](O)C(=O)O; Sta = CC(C)C[C@H](N)[C@@H](O)CC(=O)O; dNMeF = CN[C@H](Cc1ccccc1)C(=O)O; NMeQ = CN[C@@H](CCC(N)=O)C(=O)O

Tests used:
[1] = target: Disintegrin and metalloproteinase domain-containing protein 10 (Homo sapiens, UniProt O14672); assay: Inhibition of ADAM10
Disintegrin and metalloproteinase domain-containing protein 10, sequence (O14672 whole entry, the tested form may be a part): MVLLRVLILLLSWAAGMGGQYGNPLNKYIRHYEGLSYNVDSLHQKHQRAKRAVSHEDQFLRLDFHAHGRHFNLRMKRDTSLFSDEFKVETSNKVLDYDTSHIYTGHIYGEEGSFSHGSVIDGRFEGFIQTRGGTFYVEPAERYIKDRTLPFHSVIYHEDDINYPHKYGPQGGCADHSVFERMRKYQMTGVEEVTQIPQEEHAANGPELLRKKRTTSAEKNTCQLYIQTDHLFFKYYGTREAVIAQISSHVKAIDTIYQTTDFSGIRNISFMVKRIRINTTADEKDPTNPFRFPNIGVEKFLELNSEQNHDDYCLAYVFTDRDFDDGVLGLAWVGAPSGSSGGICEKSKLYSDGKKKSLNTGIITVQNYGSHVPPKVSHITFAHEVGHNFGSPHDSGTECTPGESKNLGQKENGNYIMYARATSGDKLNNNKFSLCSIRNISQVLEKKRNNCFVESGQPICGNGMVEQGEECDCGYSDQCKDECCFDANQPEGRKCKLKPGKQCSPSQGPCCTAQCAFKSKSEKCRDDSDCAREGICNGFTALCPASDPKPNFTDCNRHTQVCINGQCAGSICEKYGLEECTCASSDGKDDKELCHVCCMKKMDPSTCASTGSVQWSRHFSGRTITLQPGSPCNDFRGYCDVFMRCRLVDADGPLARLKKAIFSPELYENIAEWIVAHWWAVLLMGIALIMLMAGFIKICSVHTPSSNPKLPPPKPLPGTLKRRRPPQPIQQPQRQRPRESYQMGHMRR

[2] = target: Disintegrin and metalloproteinase domain-containing protein 9 (Homo sapiens, UniProt Q13443); assay: Inhibition of ADAM9
Disintegrin and metalloproteinase domain-containing protein 9, sequence (Q13443 whole entry, the tested form may be a part): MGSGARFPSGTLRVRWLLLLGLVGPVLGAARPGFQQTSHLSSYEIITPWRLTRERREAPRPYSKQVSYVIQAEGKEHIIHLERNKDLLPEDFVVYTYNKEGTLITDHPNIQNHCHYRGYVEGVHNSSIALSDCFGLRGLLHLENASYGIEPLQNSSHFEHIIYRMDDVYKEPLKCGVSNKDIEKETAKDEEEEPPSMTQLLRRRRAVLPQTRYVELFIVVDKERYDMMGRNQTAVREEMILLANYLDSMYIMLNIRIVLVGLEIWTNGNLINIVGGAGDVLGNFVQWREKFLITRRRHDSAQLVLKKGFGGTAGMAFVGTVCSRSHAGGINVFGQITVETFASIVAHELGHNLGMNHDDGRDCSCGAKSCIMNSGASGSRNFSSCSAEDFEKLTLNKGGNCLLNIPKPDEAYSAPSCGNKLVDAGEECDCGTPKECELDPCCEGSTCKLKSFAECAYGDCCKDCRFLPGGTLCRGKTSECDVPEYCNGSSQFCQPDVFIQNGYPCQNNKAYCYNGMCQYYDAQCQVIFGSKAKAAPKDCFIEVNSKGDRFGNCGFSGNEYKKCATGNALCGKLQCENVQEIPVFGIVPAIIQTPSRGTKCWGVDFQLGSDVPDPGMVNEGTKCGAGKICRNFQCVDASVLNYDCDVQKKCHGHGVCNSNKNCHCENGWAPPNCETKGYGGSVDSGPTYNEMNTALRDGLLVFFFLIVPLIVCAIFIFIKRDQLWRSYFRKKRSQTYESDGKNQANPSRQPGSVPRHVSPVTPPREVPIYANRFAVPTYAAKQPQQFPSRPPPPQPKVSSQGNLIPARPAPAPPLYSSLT

[3] = target: Disintegrin and metalloproteinase domain-containing protein 17 (Homo sapiens, UniProt P78536)
Disintegrin and metalloproteinase domain-containing protein 17, sequence (P78536 whole entry, the tested form may be a part): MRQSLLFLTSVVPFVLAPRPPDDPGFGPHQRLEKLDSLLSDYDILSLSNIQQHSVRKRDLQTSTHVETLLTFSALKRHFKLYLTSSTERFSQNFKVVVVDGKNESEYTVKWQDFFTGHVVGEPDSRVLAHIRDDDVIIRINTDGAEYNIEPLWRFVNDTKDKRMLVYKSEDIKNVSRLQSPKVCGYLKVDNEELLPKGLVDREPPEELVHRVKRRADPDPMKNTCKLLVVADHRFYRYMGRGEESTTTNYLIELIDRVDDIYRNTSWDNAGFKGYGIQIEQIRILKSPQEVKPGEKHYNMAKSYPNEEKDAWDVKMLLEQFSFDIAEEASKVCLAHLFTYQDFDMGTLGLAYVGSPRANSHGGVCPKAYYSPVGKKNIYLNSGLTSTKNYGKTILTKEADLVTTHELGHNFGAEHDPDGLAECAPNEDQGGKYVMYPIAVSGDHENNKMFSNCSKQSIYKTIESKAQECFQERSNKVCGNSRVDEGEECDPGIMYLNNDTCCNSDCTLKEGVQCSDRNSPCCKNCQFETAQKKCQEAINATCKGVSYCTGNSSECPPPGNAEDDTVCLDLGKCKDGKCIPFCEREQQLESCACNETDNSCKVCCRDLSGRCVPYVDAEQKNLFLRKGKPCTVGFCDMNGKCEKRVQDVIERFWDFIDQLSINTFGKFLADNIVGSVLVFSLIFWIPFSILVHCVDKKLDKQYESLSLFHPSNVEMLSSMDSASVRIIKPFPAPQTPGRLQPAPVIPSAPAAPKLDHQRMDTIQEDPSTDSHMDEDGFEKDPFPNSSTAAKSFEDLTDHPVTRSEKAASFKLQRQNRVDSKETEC

| SMILES | IC50 [1] [nM] | IC50 [2] [nM] | IC50 [3] [nM] |
| --- | --- | --- | --- |
| CC[C@H](C)[C@H](NC(=O)C[C@H](O)[C@H](CC(C)C)NC(=O)[C@H](CCC(N)=O)N(C)C(=O)[C@H](CC(C)C)NC(=O)[C@H](O)[C@@H](C)CC)C(=O)NCC(=O)N(C)[C@H](Cc1ccccc1)C(=O)N1CCC[C@H]1C(=O)OC [GRASSYSTATIN C] ({Hmp(2R,3S)}-L[NMeQ][Sta]IG[dNMeF]P-OMe) | > 100000 | > 100000 | – |
| CNC(=O)[C@H](Cc1c[nH]c2ccccc12)NC(=O)[C@@H](CC(=O)NO)CC(C)C [ILOMASTAT] | 263 | 56.3 | 13.1 |
